The values below come from patent US12370210B2, “Carbon monoxide as a treatment for neurodegenerative disease” (The General Hospital Corporation, priority 2019, dated 2025).

The test system of the experiment is mouse MPTP toxin model. Nature of the experiment: Mouse MPTP toxin model, striatal DA by HPLC and TH+ neuron counts after inhaled CO. Format: in vivo. The text has this:
FIGS. 7A-C. Effect of single dose inhaled CO in the MPTP model. CO (225 ppm; 1 hr) or air (1 hr) administered 1 hr after MPTP or saline injection (normal control saline data not shown; no difference between groups in normal control animals). Animal sacrifice 5 days after MPTP. A. CO preserved striatal dopamine (DA) (P<0.03, t-test; 22 mice/grp). Striatal DA levels measured with HPLC, B. CO reduced loss of substantia nigra pars compacta (SNpc) tyrosine hydroxylase-positive (TH+) neurons. C. Stereological nigral TH+ neuron counts after CO treatment or air (P<0.05, t-test). Mean±std error.
We also employed a short-term regimen of the widely used^5253 MPTP toxin model in which DA loss ensues within 5-8 days of MPTP. We elected to initiate iCO treatment only after MPTP exposure in order to model protective treatment of human PD, which begins only after disease onset. We exposed mice to MPTP (40 mg/kg, i.p.)^54,55 or saline (study control) and then treated with a single dose of either iCO (225 ppm) or air (negative control) for 1 hr, for 4 total groups: 1) MPTP/CO (225 ppm; 1 hr), 2) MPTP/air (1 hr), 3) saline/CO (225 ppm; 1 hr), 4) saline/air (1 hr). Five days after MPTP exposure, we measured DA levels in the striata via HPLC and counted TH+ neurons in all groups. MPTP mice treated with CO had ˜46% higher DA levels than those treated with air (2-tailed t-test, p=0.028; FIG. 7A). […] Critically, for TH+ neurons, MPTP mice treated with iCO had ˜22% more TH+ neurons than those treated with air (p<0.05; FIGS. 7B-C).

Take `[C-]#[O+]` [CO, carbon monoxide]: the “striatal DA levels higher than air-treated MPTP mice” value (MPTP 40 mg/kg i.p., CO 225 ppm 1 hr, single dose 1 hr after MPTP, 5 days after MPTP, p=0.028) is given as around 46%. Further, the “more TH+ neurons than air-treated MPTP mice” value (MPTP 40 mg/kg i.p., iCO 225 ppm 1 hr, 5 days after MPTP, p<0.05) was around 22%. In addition, the “striatal DA levels in saline-treated mice” value (saline instead of MPTP, iCO 225 ppm 1 hr, n=22 per group, p>0.05 vs air) is 97.0 ± 2.4 pmol/mg. Further, where the note is “saline instead of MPTP, iCO 225 ppm 1 hr, p>0.05 vs air”, the “TH+ cell counts in saline-treated mice” value is listed as 7,437±545.
